Data from ChEMBL document CHEMBL2074533, “OATP1B1, OATP1B3, and mrp2 are involved in hepatobiliary transport of olmesartan, a novel angiotensin II blocker” (Drug Metab Dispos, 2006).

T1: Hepatic sodium/bile acid cotransporter (Homo sapiens, UniProt Q14973)
T1 sequence (Q14973 whole entry): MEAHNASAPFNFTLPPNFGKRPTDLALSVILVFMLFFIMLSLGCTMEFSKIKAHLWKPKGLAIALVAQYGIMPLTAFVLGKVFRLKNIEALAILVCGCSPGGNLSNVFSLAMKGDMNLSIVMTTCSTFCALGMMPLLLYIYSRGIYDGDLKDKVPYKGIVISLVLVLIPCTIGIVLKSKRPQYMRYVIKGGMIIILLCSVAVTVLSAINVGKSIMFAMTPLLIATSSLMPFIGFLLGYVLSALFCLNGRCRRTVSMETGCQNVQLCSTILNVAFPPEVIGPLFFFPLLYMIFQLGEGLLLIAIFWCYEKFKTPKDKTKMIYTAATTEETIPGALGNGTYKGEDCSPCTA

T2: OATP1B3 (Homo sapiens, UniProt Q9NPD5)
T2 sequence (Q9NPD5 whole entry): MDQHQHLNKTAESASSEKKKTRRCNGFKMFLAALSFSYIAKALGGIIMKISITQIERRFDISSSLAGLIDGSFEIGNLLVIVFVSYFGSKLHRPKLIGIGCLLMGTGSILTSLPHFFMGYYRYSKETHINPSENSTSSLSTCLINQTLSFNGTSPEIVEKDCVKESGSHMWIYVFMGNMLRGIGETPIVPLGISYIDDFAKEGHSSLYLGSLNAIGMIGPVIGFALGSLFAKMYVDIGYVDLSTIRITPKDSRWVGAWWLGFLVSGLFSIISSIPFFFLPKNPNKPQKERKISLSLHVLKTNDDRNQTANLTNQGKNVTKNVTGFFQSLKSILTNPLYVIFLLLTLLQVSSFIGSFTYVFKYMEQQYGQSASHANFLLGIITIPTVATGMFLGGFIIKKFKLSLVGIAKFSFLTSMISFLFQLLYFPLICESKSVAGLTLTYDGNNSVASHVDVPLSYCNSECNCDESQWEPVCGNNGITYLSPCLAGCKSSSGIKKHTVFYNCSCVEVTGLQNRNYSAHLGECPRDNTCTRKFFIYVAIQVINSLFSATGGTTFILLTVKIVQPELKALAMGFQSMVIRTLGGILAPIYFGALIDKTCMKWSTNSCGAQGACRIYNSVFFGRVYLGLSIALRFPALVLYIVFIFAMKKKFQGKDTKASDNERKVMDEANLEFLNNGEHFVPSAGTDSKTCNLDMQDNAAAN

B1: Solute carrier organic anion transporter family member 1B1 (Homo sapiens) (protein)
chain: MDQNQHLNKTAEAQPSENKKTRYCNGLKMFLAALSLSFIAKTLGAIIMKSSIIHIERRFEISSSLVGFIDGSFEIGNLLVIVFVSYFGSKLHRPKLIGIGCFIMGIGGVLTALPHFFMGYYRYSKETNINSSENSTSTLSTCLINQILSLNRASPEIVGKGCLKESGSYMWIYVFMGNMLRGIGETPIVPLGLSYIDDFAKEGHSSLYLGILNAIAMIGPIIGFTLGSLFSKMYVDIGYVDLSTIRITPTDSRWVGAWWLNFLVSGLFSIISSIPFFFLPQTPNKPQKERKASLSLHVLETNDEKDQTANLTNQGKNITKNVTGFFQSFKSILTNPLYVMFVLLTLLQVSSYIGAFTYVFKYVEQQYGQPSSKANILLGVITIPIFASGMFLGGYIIKKFKLNTVGIAKFSCFTAVMSLSFYLLYFFILCENKSVAGLTMTYDGNNPVTSHRDVPLSYCNSDCNCDESQWEPVCGNNGITYISPCLAGCKSSSGNKKPIVFYNCSCLEVTGLQNRNYSAHLGECPRDDACTRKFYFFVAIQVLNLFFSALGGTSHVMLIVKIVQPELKSLALGFHSMVIRALGGILAPIYFGALIDTTCIKWSTNNCGTRGSCRTYNSTSFSRVYLGLSSMLRVSSLVLYIILIYAMKKKYQEKDINASENGSVMDEANLESLNKNKHFVPSAGADSETHC

Tests used:
[1] = target: T1, Hepatic sodium/bile acid cotransporter; assay: TP_TRANSPORTER: transport in NTCP-transfected HEK-293 cells; assay type: functional, cell-based; details: hek293
[2] = target: ATP-binding cassette sub-family C member 2 (Rattus norvegicus, UniProt Q63120); assay: TP_TRANSPORTER: biliary excretion in EHBR rat; assay type: functional, organism-based, Bile; details: in vivo
ATP-binding cassette sub-family C member 2 (Rattus norvegicus, UniProt Q63120), sequence (Q63120 whole entry): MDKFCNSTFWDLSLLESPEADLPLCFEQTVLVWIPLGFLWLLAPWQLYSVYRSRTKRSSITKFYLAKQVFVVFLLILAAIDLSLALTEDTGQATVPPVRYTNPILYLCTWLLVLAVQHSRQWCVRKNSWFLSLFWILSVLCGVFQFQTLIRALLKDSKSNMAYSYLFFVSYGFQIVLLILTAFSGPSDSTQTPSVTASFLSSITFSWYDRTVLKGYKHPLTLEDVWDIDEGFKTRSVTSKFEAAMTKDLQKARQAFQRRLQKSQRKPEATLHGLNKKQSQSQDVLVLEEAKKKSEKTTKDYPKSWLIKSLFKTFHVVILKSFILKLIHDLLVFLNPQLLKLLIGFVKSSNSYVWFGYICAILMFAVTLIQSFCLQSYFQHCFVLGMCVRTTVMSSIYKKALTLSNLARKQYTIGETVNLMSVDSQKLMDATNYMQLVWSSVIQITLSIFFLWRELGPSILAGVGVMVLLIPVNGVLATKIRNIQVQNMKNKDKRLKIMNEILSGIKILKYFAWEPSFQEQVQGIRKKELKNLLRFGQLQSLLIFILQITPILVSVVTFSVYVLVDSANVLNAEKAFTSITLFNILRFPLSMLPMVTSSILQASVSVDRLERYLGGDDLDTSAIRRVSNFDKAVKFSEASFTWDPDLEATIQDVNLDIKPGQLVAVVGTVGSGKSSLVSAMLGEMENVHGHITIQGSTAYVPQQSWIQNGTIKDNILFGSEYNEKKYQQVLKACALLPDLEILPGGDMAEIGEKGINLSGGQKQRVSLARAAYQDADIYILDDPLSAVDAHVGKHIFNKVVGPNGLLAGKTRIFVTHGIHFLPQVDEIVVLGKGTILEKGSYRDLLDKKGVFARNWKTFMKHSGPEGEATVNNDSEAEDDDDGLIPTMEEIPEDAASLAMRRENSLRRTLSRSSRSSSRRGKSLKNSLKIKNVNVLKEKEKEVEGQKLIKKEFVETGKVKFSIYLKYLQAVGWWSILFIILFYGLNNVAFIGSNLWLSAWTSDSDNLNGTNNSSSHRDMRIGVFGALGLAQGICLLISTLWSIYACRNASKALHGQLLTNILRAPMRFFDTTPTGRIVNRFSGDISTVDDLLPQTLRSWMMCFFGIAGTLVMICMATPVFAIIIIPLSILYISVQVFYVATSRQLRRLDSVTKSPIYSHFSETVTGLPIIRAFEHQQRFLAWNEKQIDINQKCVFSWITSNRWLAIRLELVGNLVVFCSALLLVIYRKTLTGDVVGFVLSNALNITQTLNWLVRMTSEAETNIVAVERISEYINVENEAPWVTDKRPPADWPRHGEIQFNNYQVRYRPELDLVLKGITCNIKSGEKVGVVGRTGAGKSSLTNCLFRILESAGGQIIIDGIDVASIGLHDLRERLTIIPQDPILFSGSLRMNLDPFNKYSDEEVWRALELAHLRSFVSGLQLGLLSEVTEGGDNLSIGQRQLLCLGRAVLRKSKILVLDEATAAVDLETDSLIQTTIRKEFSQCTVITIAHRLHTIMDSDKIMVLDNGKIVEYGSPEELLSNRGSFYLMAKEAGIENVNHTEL

[3] = target: T3, ATP-binding cassette sub-family C member 2 (Homo sapiens, UniProt Q92887); assay: TP_TRANSPORTER: transport in MRP2-expressing vesicles; assay type: functional, subcellular
T3 sequence (Q92887 whole entry): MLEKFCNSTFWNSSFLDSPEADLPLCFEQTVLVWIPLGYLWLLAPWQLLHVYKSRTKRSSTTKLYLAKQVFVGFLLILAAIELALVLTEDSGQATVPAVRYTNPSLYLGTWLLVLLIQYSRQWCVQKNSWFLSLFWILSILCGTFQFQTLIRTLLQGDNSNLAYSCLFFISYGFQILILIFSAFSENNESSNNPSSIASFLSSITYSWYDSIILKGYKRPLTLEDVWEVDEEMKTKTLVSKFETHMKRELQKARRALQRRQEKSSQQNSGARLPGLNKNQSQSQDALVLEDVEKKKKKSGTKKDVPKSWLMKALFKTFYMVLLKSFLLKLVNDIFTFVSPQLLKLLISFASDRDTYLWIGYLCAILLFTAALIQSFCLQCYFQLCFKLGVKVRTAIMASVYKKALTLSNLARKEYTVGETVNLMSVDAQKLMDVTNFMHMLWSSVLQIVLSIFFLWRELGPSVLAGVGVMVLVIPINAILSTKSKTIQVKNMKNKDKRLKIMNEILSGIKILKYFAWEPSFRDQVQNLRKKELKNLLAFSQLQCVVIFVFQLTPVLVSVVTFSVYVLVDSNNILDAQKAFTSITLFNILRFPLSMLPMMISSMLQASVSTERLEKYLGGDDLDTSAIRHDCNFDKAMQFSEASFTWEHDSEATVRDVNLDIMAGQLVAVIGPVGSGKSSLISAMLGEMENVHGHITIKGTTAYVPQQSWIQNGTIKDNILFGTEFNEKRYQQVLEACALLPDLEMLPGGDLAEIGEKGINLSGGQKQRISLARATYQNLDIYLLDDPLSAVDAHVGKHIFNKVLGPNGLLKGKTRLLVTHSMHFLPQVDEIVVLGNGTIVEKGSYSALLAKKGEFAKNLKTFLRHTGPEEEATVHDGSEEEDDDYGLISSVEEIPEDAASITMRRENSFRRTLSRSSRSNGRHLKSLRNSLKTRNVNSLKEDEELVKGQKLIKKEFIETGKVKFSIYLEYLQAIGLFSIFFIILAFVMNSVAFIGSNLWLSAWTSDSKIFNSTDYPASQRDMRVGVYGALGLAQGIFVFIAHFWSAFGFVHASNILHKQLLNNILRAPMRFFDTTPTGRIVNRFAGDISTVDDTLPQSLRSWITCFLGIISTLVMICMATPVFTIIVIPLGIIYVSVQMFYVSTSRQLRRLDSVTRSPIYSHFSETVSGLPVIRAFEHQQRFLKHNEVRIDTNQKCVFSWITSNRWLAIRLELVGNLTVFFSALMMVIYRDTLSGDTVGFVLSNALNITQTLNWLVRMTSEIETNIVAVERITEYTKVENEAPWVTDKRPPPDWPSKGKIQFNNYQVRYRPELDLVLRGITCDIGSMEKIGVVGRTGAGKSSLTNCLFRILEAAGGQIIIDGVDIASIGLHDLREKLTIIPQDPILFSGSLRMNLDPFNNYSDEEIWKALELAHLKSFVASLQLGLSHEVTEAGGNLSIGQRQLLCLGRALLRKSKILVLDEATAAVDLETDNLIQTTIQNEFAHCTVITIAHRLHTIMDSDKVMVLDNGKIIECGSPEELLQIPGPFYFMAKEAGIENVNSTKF

[4] = target: T3, ATP-binding cassette sub-family C member 2; assay: TP_TRANSPORTER: transport in hCMV cells; assay type: functional, cell membranes, Canalicular membrane vesicle
OATP1B3 = target: T2, OATP1B3; assay: TP_TRANSPORTER: transport in OATP1B3-expressing oocytes; assay type: functional, cell-based, Oocyte
[5] = substrate: CCCc1nc(C(C)(C)O)c(C(=O)O)n1Cc1ccc(-c2ccccc2-c2nnn[nH]2)cc1; assay: TP_TRANSPORTER: transport in OATP1B1-expressing oocytes; assay type: functional, cell-based, Oocyte

Row | Molecule | Activity [1] | Activity [2] | Activity [3] | Activity [4] | Km (OATP1B3) | Km [5]
1 | CCCc1nc(C(C)(C)O)c(C(=O)O)n1Cc1ccc(-c2ccccc2-c2nnn[nH]2)cc1 [OLMESARTAN] | is not a substrate [-] | substrate [+] | substrate [+] | substrate [+] | 71.8 µM | 
2 | B1 |  |  |  |  |  | 42.6 µM
